13 compounds from PubChem BioAssay (NCI) can be followed below.

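Method: 48-hour compound exposure of cells in 96-well plates, five concentrations, linear interpolation of endpoints. Here, GI50 denotes the concentration required for 50% inhibition of growth. Definition used: TGI = concentration required for complete inhibition of growth.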

Some test systems named below: NCI-H522 lung; UO-31 renal; SF-295 CNS; A498 renal; MOLT-4 leukemia; KM20L2 colon; HCT-15 colon; SN12C renal; HCT-116 colon; LOX IMVI melanoma.
Holding throughout (test): NCI anticancer screen, dose series, 48 h

In the case of `CCCCC1CC(c2cccc([N+](=O)[O-])c2)=NO1` (stereo unspecified), the TGI in the experiment with NCI-H522 lung, in the experiment with UO-31 renal, with SF-295 CNS, in the experiment with A498 renal, in the experiment with MOLT-4 leukemia and in the experiment on KM20L2 colon was over 100 µM throughout. Further, the TGI in the experiment with HCT-15 colon, in the experiment with SN12C renal and in the experiment with HCT-116 colon was over 100 µM throughout.
On to `NC1CCCCC1.[O]=[Ge].[O]=[Ge].[O]=[Ge][OH].[O]=[Ge][OH]`, for which the GI50 in the experiment with UO-31 renal and with SF-295 CNS was over 100 µM in each case. Also, the TGI in the experiment with UO-31 renal, in the experiment on SF-295 CNS, with A498 renal, in the experiment with MOLT-4 leukemia, in the experiment with KM20L2 colon and with LOX IMVI melanoma was over 100 µM each time. The TGI with HCT-15 colon, in the experiment on SN12C renal and with HCT-116 colon was over 100 µM in each case.
Regarding `O=Cc1ccccc1OCCOc1cc(OCCOc2ccccc2C=O)c(OCCOc2ccccc2C=O)cc1OCCOc1ccccc1C=O`, the TGI in the experiment on NCI-H522 lung, with UO-31 renal, in the experiment on A498 renal, with MOLT-4 leukemia, in the experiment with KM20L2 colon and in the experiment with LOX IMVI melanoma was over 100 µM each time. Besides, the figures for the TGI with HCT-15 colon, in the experiment with SN12C renal and with HCT-116 colon were over 100 µM, over 100 µM and over 71.2 µM, respectively.
With `C=CC1[C@H]2COC(C)(C)O[C@@H]2CC(=O)C1(C)C` (stereo partly specified), the TGI with NCI-H522 lung, in the experiment with UO-31 renal, in the experiment with SF-295 CNS, in the experiment on KM20L2 colon, with LOX IMVI melanoma and in the experiment with SN12C renal was over 100 µM throughout. This compound gave a TGI in the experiment with HCT-116 colon of over 100 µM.
Turning to `O=C(c1ccc(Cl)cc1)c1ccc(OCCCCCCCCCCOc2ccc(C(=O)c3ccc(Cl)cc3)cc2)cc1`, the TGI in the experiment on NCI-H522 lung, in the experiment with UO-31 renal, with SF-295 CNS, in the experiment on A498 renal, in the experiment with MOLT-4 leukemia and with KM20L2 colon was over 100 µM throughout. For the same compound, the TGI with LOX IMVI melanoma, in the experiment on HCT-15 colon and in the experiment on SN12C renal was over 100 µM in each case.
Regarding `OCCCOC(c1ccccc1)(c1ccccc1)c1ccccc1`, the TGI with NCI-H522 lung, with UO-31 renal, in the experiment with SF-295 CNS, in the experiment on MOLT-4 leukemia, in the experiment with KM20L2 colon and in the experiment with LOX IMVI melanoma was over 100 µM each time. For the same compound, the TGI with HCT-15 colon, in the experiment on SN12C renal and in the experiment with HCT-116 colon was over 100 µM throughout.
For the compound `CCCCc1c2c(nc3c1CCc1cc4cc5c(nc4nc1-3)-c1nc3c(c(CCCC)c1CC5)CCCC3)CCCC2`, the TGI is over 100 µM with NCI-H522 lung; over 100 µM with UO-31 renal; over 100 µM with SF-295 CNS; over 100 µM with MOLT-4 leukemia; 69.3 µM in the experiment on KM20L2 colon; over 100 µM in the experiment on LOX IMVI melanoma. Also, the TGI in the experiment with HCT-15 colon, in the experiment on SN12C renal and in the experiment with HCT-116 colon was over 100 µM in each case.
Regarding `CCc1cccc(C(C)C)c1NC(=O)C(=O)CC(=O)c1c(C)n([O-])c2ccccc2[n+]1=O`, the TGI in the experiment with NCI-H522 lung, in the experiment with UO-31 renal, in the experiment with A498 renal, with MOLT-4 leukemia, in the experiment with KM20L2 colon and with LOX IMVI melanoma was over 100 µM each time. In addition, the TGI in the experiment on HCT-15 colon, with SN12C renal and with HCT-116 colon was over 100 µM throughout.
As to `C1C[OH+]CC[OH+]CCNCC[OH+]CC[OH+]CCN1.[Cl-].[Pt+4]`, the GI50 with NCI-H522 lung was 26.3 µM; in the experiment with UO-31 renal, over 100 µM; in the experiment on SF-295 CNS, over 100 µM; in the experiment with A498 renal it was over 100 µM; with MOLT-4 leukemia, over 100 µM; with KM20L2 colon it was over 100 µM. For the same compound, the GI50 in the experiment on LOX IMVI melanoma, in the experiment on SN12C renal and in the experiment with HCT-116 colon was over 100 µM throughout. For the same compound, the TGI in the experiment with NCI-H522 lung, in the experiment with UO-31 renal, in the experiment with SF-295 CNS, with A498 renal, in the experiment on MOLT-4 leukemia and in the experiment on KM20L2 colon was over 100 µM in each case. In addition, the TGI with LOX IMVI melanoma, in the experiment on SN12C renal and with HCT-116 colon was over 100 µM throughout.
With `O=C(c1ccccc1)C1CCCCN1C(=O)c1ccccc1` (stereo unspecified), the TGI in the experiment with NCI-H522 lung, in the experiment with UO-31 renal, with A498 renal, with MOLT-4 leukemia, in the experiment on KM20L2 colon and with HCT-15 colon was over 100 µM in each case. The TGI in the experiment on SN12C renal and in the experiment with HCT-116 colon was over 100 µM in each case.
Turning to `NCCCOCC(=O)O`, the TGI in the experiment on UO-31 renal, with SF-295 CNS, in the experiment with MOLT-4 leukemia, with KM20L2 colon, with HCT-15 colon and in the experiment on SN12C renal was over 100 µM each time. In the experiment with HCT-116 colon, this compound had a TGI of over 100 µM.
Consider `CC(=O)N[C@@H]1C(O)CN2C(=O)C(=O)O[C@H](C(O)CO)[C@@H]12` (stereo partly specified), for which the TGI in the experiment with NCI-H522 lung, with UO-31 renal, in the experiment on SF-295 CNS, with A498 renal, in the experiment on MOLT-4 leukemia and with KM20L2 colon was over 100 µM each time. Also, the TGI with LOX IMVI melanoma and with HCT-116 colon was over 100 µM in each case.
With `COc1ccc(C2SCC(=O)N2NC(=O)C(O)c2ccccc2)cc1OC` (stereo unspecified), the GI50 in the experiment with NCI-H522 lung, in the experiment on UO-31 renal, in the experiment with SF-295 CNS, in the experiment with A498 renal, with MOLT-4 leukemia and with LOX IMVI melanoma was over 100 µM throughout. Further, the GI50 in the experiment on HCT-15 colon, in the experiment on SN12C renal and in the experiment on HCT-116 colon was over 100 µM throughout. The TGI with NCI-H522 lung, with UO-31 renal, in the experiment with SF-295 CNS, in the experiment on A498 renal, in the experiment on MOLT-4 leukemia and in the experiment on LOX IMVI melanoma was over 100 µM throughout. Further, the TGI in the experiment on HCT-15 colon, in the experiment with SN12C renal and in the experiment with HCT-116 colon was over 100 µM each time.
